# Patent publication US20260022142A1, “MACROCYCLIC IMMUNOMODULATORS” (Bristol-Myers Squibb Company, priority 2022, published 2026)
# Bridge positions count the residues as written; N and C are the ends. Square brackets hold non-standard residues; d marks the D form. Peptide text beside a SMILES is read from it. * marks the point of attachment. Phe(4-CH2NH2) = NCc1ccc(C[C@H](N)C(=O)O)cc1; Bip = N[C@@H](Cc1ccc(-c2ccccc2)cc1)C(=O)O; Phe(3-CN) = N#Cc1cccc(C[C@H](N)C(=O)O)c1; Phe(3-F) = N[C@@H](Cc1cccc(F)c1)C(=O)O; Phe(3-Me) = Cc1cccc(C[C@H](N)C(=O)O)c1; Phe(4-F) = N[C@@H](Cc1ccc(F)cc1)C(=O)O; Phe(4-Me) = Cc1ccc(C[C@H](N)C(=O)O)cc1; Phe(2-Me) = Cc1ccccc1C[C@H](N)C(=O)O; 3Pal = N[C@@H](Cc1cccnc1)C(=O)O; 4Pal = N[C@@H](Cc1ccncc1)C(=O)O; Cha = N[C@@H](CC1CCCCC1)C(=O)O; Carboxymethyl = O=C(O)C*; Orn = NCCC[C@H](N)C(=O)O; Aun = NCCCCCCCCCCC(=O)O; Dab = NCC[C@H](N)C(=O)O; Dap = NC[C@H](N)C(=O)O; AEEA = NCCOCCOCC(=O)O
# Molecular target: T1, PD-1/PD-L1 interaction (PE-labeled human PD-L1-Ig binding to Jurkat cell line over-expressing human PD-1) (Homo sapiens, UniProt Q15116)
# T1 construct: expressed in transfected cells; host or cells: Jurkat
# T1 sequence (Q15116 25-288): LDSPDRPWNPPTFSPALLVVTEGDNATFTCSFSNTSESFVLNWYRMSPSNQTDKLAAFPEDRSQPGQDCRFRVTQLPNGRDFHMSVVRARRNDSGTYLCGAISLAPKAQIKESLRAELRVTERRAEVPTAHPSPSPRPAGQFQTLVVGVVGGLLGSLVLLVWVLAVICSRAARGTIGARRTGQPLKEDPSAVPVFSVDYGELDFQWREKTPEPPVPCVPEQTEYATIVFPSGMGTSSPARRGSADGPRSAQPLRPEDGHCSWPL
# Experiment: Jurkat-PD-1 Cell Binding High-Content Screening Assay (CBA)
# Assay type: cell-based
# Conditions: Jurkat cell line over-expressing human PD-1; PE-labeled PD-L1-Ig 20 nM final; read-out: Jurkat hPD1-PDL1 IC50
# Method in brief: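 Read-out is high-content imaging of cell-bound phycoerythrin-tagged PD-L1-Ig on fixed, Hoechst-counterstained Jurkat cells that over-express human PD-1. Compound exposure lasts 2 h at 37° C before the labeled ligand (20 nM final) is added for a further hour.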
row,SMILES,IC50 [nM]
1,Cc1cccc(C[C@@H]2NC(=O)[C@H](CC(=O)O)NC(=O)[C@H](Cc3ccc(OCC(=O)O)cc3)NC(=O)[C@H](CN)NC(=O)CSC[C@@H](C(=O)N[C@@H](CCN)C(=O)NCCOCCOCC(=O)NCCCCCCCCCCC(=O)O)NC(=O)[C@H](CCCN)NC(=O)[C@H](C(C)C)NC(=O)[C@H](CC3CCCCC3)NC(=O)[C@H](CCN)NC(=O)[C@@H](CC(C)C)NC(=O)[C@H](CCCN)NC(=O)[C@H](Cc3ccc(CN)cc3)NC(=O)[C@H](Cc3ccc(-c4ccccc4)cc3)NC(=O)[C@H](Cc3ccc(O)cc3)NC2=O)c1 [Compound 2046] ({CH2CO}-[Dap]Y(Carboxymethyl)D[Phe(3-Me)]Y[Bip][Phe(4-CH2NH2)][Orn][dL][Dab][Cha]V[Orn]C[Dab][AEEA][Aun]-OH; thioether N-14),9.7
2,Cc1cccc(C[C@@H]2NC(=O)[C@H](CC(=O)O)NC(=O)[C@H](Cc3ccc(OCC(=O)O)cc3)NC(=O)[C@H](CN)NC(=O)CSC[C@@H](C(=O)N[C@@H](CCN)C(=O)NCCOCCOCC(=O)NCCCCCCCCCCC(=O)O)NC(=O)[C@H](CCCN)NC(=O)[C@H](C(C)C)NC(=O)[C@H](CC3CCCCC3)NC(=O)[C@H](CCN)NC(=O)[C@@H](CC(C)C)NC(=O)[C@H](CCCN)NC(=O)[C@H](Cc3cccc(C#N)c3)NC(=O)[C@H](Cc3ccc(-c4ccccc4)cc3)NC(=O)[C@H](Cc3ccc(O)cc3)NC2=O)c1 [Compound 2051] ({CH2CO}-[Dap]Y(Carboxymethyl)D[Phe(3-Me)]Y[Bip][Phe(3-CN)][Orn][dL][Dab][Cha]V[Orn]C[Dab][AEEA][Aun]-OH; thioether N-14),32.6
3,Cc1cccc(C[C@@H]2NC(=O)[C@H](CC(=O)O)NC(=O)[C@H](Cc3ccc(OCC(=O)O)cc3)NC(=O)[C@H](CN)NC(=O)CSC[C@@H](C(=O)N[C@@H](CCN)C(=O)NCCOCCOCC(=O)NCCCCCCCCCCC(=O)O)NC(=O)[C@H](CCCN)NC(=O)[C@H](C(C)C)NC(=O)[C@H](CC3CCCCC3)NC(=O)[C@H](CCN)NC(=O)[C@@H](CC(C)C)NC(=O)[C@H](CCCN)NC(=O)[C@H](Cc3ccncc3)NC(=O)[C@H](Cc3ccc(-c4ccccc4)cc3)NC(=O)[C@H](Cc3ccc(O)cc3)NC2=O)c1 [Compound 2053] ({CH2CO}-[Dap]Y(Carboxymethyl)D[Phe(3-Me)]Y[Bip][4Pal][Orn][dL][Dab][Cha]V[Orn]C[Dab][AEEA][Aun]-OH; thioether N-14),6.9
4,Cc1cccc(C[C@@H]2NC(=O)[C@H](CC(=O)O)NC(=O)[C@H](Cc3ccc(OCC(=O)O)cc3)NC(=O)[C@H](CN)NC(=O)CSC[C@@H](C(=O)N[C@@H](CCN)C(=O)NCCOCCOCC(=O)NCCCCCCCCCCC(=O)O)NC(=O)[C@H](CCCN)NC(=O)[C@H](C(C)C)NC(=O)[C@H](CC3CCCCC3)NC(=O)[C@H](CCN)NC(=O)[C@@H](CC(C)C)NC(=O)[C@H](CCCN)NC(=O)[C@H](Cc3cccnc3)NC(=O)[C@H](Cc3ccc(-c4ccccc4)cc3)NC(=O)[C@H](Cc3ccc(O)cc3)NC2=O)c1 [Compound 2055] ({CH2CO}-[Dap]Y(Carboxymethyl)D[Phe(3-Me)]Y[Bip][3Pal][Orn][dL][Dab][Cha]V[Orn]C[Dab][AEEA][Aun]-OH; thioether N-14),7.9
5,COc1ccc(C[C@@H]2NC(=O)[C@H](Cc3ccc(-c4ccccc4)cc3)NC(=O)[C@H](Cc3ccc(O)cc3)NC(=O)[C@H](Cc3cccc(C)c3)NC(=O)[C@H](CC(=O)O)NC(=O)[C@H](Cc3ccc(OCC(=O)O)cc3)NC(=O)[C@H](CN)NC(=O)CSC[C@@H](C(=O)N[C@@H](CCN)C(=O)NCCOCCOCC(=O)NCCCCCCCCCCC(=O)O)NC(=O)[C@H](CCCN)NC(=O)[C@H](C(C)C)NC(=O)[C@H](CC3CCCCC3)NC(=O)[C@H](CCN)NC(=O)[C@@H](CC(C)C)NC(=O)[C@H](CCCN)NC2=O)cc1 [Compound 2056] ({CH2CO}-[Dap]Y(Carboxymethyl)D[Phe(3-Me)]Y[Bip]Y(Me)[Orn][dL][Dab][Cha]V[Orn]C[Dab][AEEA][Aun]-OH; thioether N-14),12.6

# More lines, now with the values ahead:
row,IC50 [nM],SMILES
1,12.4,Cc1cccc(C[C@@H]2NC(=O)[C@H](CC(=O)O)NC(=O)[C@H](Cc3ccc(OCC(=O)O)cc3)NC(=O)[C@H](CN)NC(=O)CSC[C@@H](C(=O)N[C@@H](CCN)C(=O)NCCOCCOCC(=O)NCCCCCCCCCCC(=O)O)NC(=O)[C@H](CCCN)NC(=O)[C@H](C(C)C)NC(=O)[C@H](CC3CCCCC3)NC(=O)[C@H](CCN)NC(=O)[C@@H](CC(C)C)NC(=O)[C@H](CCCN)NC(=O)[C@H](Cc3ccccc3C)NC(=O)[C@H](Cc3ccc(-c4ccccc4)cc3)NC(=O)[C@H](Cc3ccc(O)cc3)NC2=O)c1 [Compound 2048] ({CH2CO}-[Dap]Y(Carboxymethyl)D[Phe(3-Me)]Y[Bip][Phe(2-Me)][Orn][dL][Dab][Cha]V[Orn]C[Dab][AEEA][Aun]-OH; thioether N-14)
2,16.9,Cc1cccc(C[C@@H]2NC(=O)[C@H](CC(=O)O)NC(=O)[C@H](Cc3ccc(OCC(=O)O)cc3)NC(=O)[C@H](CN)NC(=O)CSC[C@@H](C(=O)N[C@@H](CCN)C(=O)NCCOCCOCC(=O)NCCCCCCCCCCC(=O)O)NC(=O)[C@H](CCCN)NC(=O)[C@H](C(C)C)NC(=O)[C@H](CC3CCCCC3)NC(=O)[C@H](CCN)NC(=O)[C@@H](CC(C)C)NC(=O)[C@H](CCCN)NC(=O)[C@H](Cc3ccc(F)cc3)NC(=O)[C@H](Cc3ccc(-c4ccccc4)cc3)NC(=O)[C@H](Cc3ccc(O)cc3)NC2=O)c1 [Compound 2049] ({CH2CO}-[Dap]Y(Carboxymethyl)D[Phe(3-Me)]Y[Bip][Phe(4-F)][Orn][dL][Dab][Cha]V[Orn]C[Dab][AEEA][Aun]-OH; thioether N-14)
3,14.7,Cc1cccc(C[C@@H]2NC(=O)[C@H](CC(=O)O)NC(=O)[C@H](Cc3ccc(OCC(=O)O)cc3)NC(=O)[C@H](CN)NC(=O)CSC[C@@H](C(=O)N[C@@H](CCN)C(=O)NCCOCCOCC(=O)NCCCCCCCCCCC(=O)O)NC(=O)[C@H](CCCN)NC(=O)[C@H](C(C)C)NC(=O)[C@H](CC3CCCCC3)NC(=O)[C@H](CCN)NC(=O)[C@@H](CC(C)C)NC(=O)[C@H](CCCN)NC(=O)[C@H](Cc3cccc(F)c3)NC(=O)[C@H](Cc3ccc(-c4ccccc4)cc3)NC(=O)[C@H](Cc3ccc(O)cc3)NC2=O)c1 [Compound 2052] ({CH2CO}-[Dap]Y(Carboxymethyl)D[Phe(3-Me)]Y[Bip][Phe(3-F)][Orn][dL][Dab][Cha]V[Orn]C[Dab][AEEA][Aun]-OH; thioether N-14)
4,12.9,Cc1ccc(C[C@@H]2NC(=O)[C@H](Cc3ccc(-c4ccccc4)cc3)NC(=O)[C@H](Cc3ccc(O)cc3)NC(=O)[C@H](Cc3cccc(C)c3)NC(=O)[C@H](CC(=O)O)NC(=O)[C@H](Cc3ccc(OCC(=O)O)cc3)NC(=O)[C@H](CN)NC(=O)CSC[C@@H](C(=O)N[C@@H](CCN)C(=O)NCCOCCOCC(=O)NCCCCCCCCCCC(=O)O)NC(=O)[C@H](CCCN)NC(=O)[C@H](C(C)C)NC(=O)[C@H](CC3CCCCC3)NC(=O)[C@H](CCN)NC(=O)[C@@H](CC(C)C)NC(=O)[C@H](CCCN)NC2=O)cc1 [Compound 2054] ({CH2CO}-[Dap]Y(Carboxymethyl)D[Phe(3-Me)]Y[Bip][Phe(4-Me)][Orn][dL][Dab][Cha]V[Orn]C[Dab][AEEA][Aun]-OH; thioether N-14)
